Test system: CYP1A2
Experiment: MEROD assay in live Hepa1c1c7 cells incubated with test compound (CYP1A2 induction)
Format: cell-based, mouse
Details: live Hepa1c1c7 cells incubated with 10 μM compound
Description: FIG. 1 illustrates how caffeine is primarily metabolized to paraxanthine via CYP1A2 enzyme in a human, according to some embodiments. The MEROD (methoxyresorufin-O-demethylase) assay measures the activity of the enzyme (CYP1A2) that converts methoxyresorufin (probe substrate) to resorufin (demethylation) in the presence of NADPH. The resulting resorufin concentration can be measured using a fluorescence reader by setting the excitation and emission wavelengths at 544 and 590 nm, respectively.
For MEROD assay in live cells, Hepa1c1c7 cells were cultured in either 6-well or 24-well-plates. For the 24-well plate experiment, after confluent cells were incubated for approximately 20 hours with either resorufin, nitro-resorufin, chloro-resorufin, 3-MC or DMSO (in triplicates), culture media was removed and 180 μL fresh culture media containing […] methoxyresorufin was added per well. After 1 hour incubation at 37° C., […] aliquot was taken from each well and the formation of resorufin was measured by fluorescence. […] After 5 hours incubation at 37° C., 100 μL aliquot was taken from each well, centrifuged at 12,000 g at RT for ˜5 min and the supernatants were placed into wells of a 96-well fluorescence plate and the formation of resorufin was measured by fluorescence.

formation of resorufin (MEROD): no marked difference
Compound: O=c1c2ccc(Cl)cc2nc2n1CCc1c-2[nH]c2ccccc12 [chloro-rutaecarpine]
